Laboratory results taken from paper PMC3601769 (Bioorganic & medicinal chemistry letters, 2013).

test system: tubulin (colchicine site); experiment: Inhibition of colchicine binding to tubulin

Which “Inhibition of colchicine binding (% inhibition ± SD) at 5 μM inhibitor” value does the source give for `COc1ccc(OC)c(Nc2nc(-c3cccc(OC)c3OC)no2)c1` [DCP 10500070] here?
Its value is “inactive”.

`CCOC(=O)c1cccc(Nc2nc(-c3ccc(OC)cc3)no2)c1` [DCP 10500035] was tested. Which “Inhibition of colchicine binding (% inhibition ± SD) at 5 μM inhibitor” value did it give?
The value was “inactive”.

Which “Inhibition of colchicine binding (% inhibition ± SD) at 5 μM inhibitor” value does the source give for `Fc1ccccc1Nc1nc(-c2ccccc2)no1` [DCP 10500060] here?
Its value is “inactive”.
